# Data from PMC5218480 (PLoS ONE, 2017).
# Tested on: MV-4-11 cells
# Assay: Gene expression microarray analysis (Affymetrix PrimeView) and GSEA
# Format: cell-based, human
# Set-up: RFU PODN (11730768_x_at) / Fold change /veh PODN (11730768_x_at) / RFU LINC00158 (11744669_a_at) / Fold change /veh LINC00158 (11744669_a_at) / RFU DUSP10 (11751237_a_at) / Fold change /veh DUSP10 (11751237_a_at) / RFU ID3 (11757404_x_at) / Fold change /veh ID3 (11757404_x_at) / RFU PLEKHG5 (11737974_s_at) / Fold change /veh PLEKHG5 (11737974_s_at) / RFU LRRC4B (11730491_at) / Fold change /veh LRRC4B (11730491_at) / RFU GIMAP4 (11747438_a_at) / Fold change /veh GIMAP4 (11747438_a_at) / RFU KRT8 (11758183_x_at) / Fold change /veh KRT8 (11758183_x_at) / RFU CNN1 (11734310_a_at) / Fold change /veh CNN1 (11734310_a_at) / RFU VPS37D (11726825_at) / Fold change /veh VPS37D (11726825_at) / RFU C10orf10 (11716522_x_at) / Fold change /veh C10orf10 (11716522_x_at) / RFU KIR2DL2 /// KIR2DL4 /// KIR2DL5A /// KIR2DL5B /// KIR2DS1 /// KIR2DS2 /// KIR2DS3 /// KIR2DS4 /// KIR3DL3 /// KIR3DL3 /// KIR3DS1 (11738374_at) / Fold change /veh KIR2DL2 /// KIR2DL4 /// KIR2DL5A /// KIR2DL5B /// KIR2DS1 /// KIR2DS2 /// KIR2DS3 /// KIR2DS4 /// KIR3DL3 /// KIR3DL3 /// KIR3DS1 (11738374_at) / RFU C1QL1 (11718748_at) / Fold change /veh C1QL1 (11718748_at) / RFU TMPRSS4 (11747572_a_at) / Fold change /veh TMPRSS4 (11747572_a_at) / RFU HAMP (11756126_x_at) / Fold change /veh HAMP (11756126_x_at) / RFU RNFT2 (11725882_a_at) / Fold change /veh RNFT2 (11725882_a_at) / RFU NR4A2 (11747474_a_at) / Fold change /veh NR4A2 (11747474_a_at) / RFU ABCC12 (11746883_a_at) / Fold change /veh ABCC12 (11746883_a_at) / RFU TMEM136 (11760407_x_at) / Fold change /veh TMEM136 (11760407_x_at) / RFU CLDN22 /// WWC2 (11732394_at) / Fold change /veh CLDN22 /// WWC2 (11732394_at) / RFU HLA-DPB1 (11760878_x_at) / Fold change /veh HLA-DPB1 (11760878_x_at) / RFU SPINT1 (11716480_a_at) / Fold change /veh SPINT1 (11716480_a_at) / RFU GAP43 (11754022_s_at) / Fold change /veh GAP43 (11754022_s_at) / RFU A4GNT (11735810_at) / Fold change /veh A4GNT (11735810_at) / RFU PRB3 (11715151_x_at) / Fold change /veh PRB3 (11715151_x_at) / RFU TUBB4B (11761932_at) / Fold change /veh TUBB4B (11761932_at) / RFU CAPN14 (11732068_a_at) / Fold change /veh CAPN14 (11732068_a_at) / RFU TMCC2 (11721928_a_at) / Fold change /veh TMCC2 (11721928_a_at) / RFU IRGQ (11745062_a_at) / Fold change /veh IRGQ (11745062_a_at) / RFU FAM174B (11720279_a_at) / Fold change /veh FAM174B (11720279_a_at) / RFU TMPRSS4 (11748680_a_at) / Fold change /veh TMPRSS4 (11748680_a_at) / RFU FAM212B (11763350_a_at) / Fold change /veh FAM212B (11763350_a_at) / RFU PLEKHG5 (11743358_a_at) / Fold change /veh PLEKHG5 (11743358_a_at) / RFU ZSCAN30 (11745921_a_at) / Fold change /veh ZSCAN30 (11745921_a_at) / RFU CMKLR1 (11741424_a_at) / Fold change /veh CMKLR1 (11741424_a_at) / RFU LOC101060620 /// MAPK8IP1 (11723275_at) / Fold change /veh LOC101060620 /// MAPK8IP1 (11723275_at) / RFU SPTSSB (11747773_x_at) / Fold change /veh SPTSSB (11747773_x_at) / RFU PRSS12 (11739890_at) / Fold change /veh PRSS12 (11739890_at) / RFU BIN1 (11741810_x_at) / Fold change /veh BIN1 (11741810_x_at) / RFU WNT11 (11732464_a_at) / Fold change /veh WNT11 (11732464_a_at) / RFU C10orf10 (11716521_a_at) / Fold change /veh C10orf10 (11716521_a_at) / RFU C5orf56 (11738089_at) / Fold change /veh C5orf56 (11738089_at) / RFU CYB561 (11721691_x_at) / Fold change /veh CYB561 (11721691_x_at) / RFU ANKRD19P (11752326_a_at) / Fold change /veh ANKRD19P (11752326_a_at) / RFU OR2T12 /// OR2T33 /// OR2T8 (11738714_s_at) / Fold change /veh OR2T12 /// OR2T33 /// OR2T8 (11738714_s_at) / RFU VCAN (11748164_a_at) / Fold change /veh VCAN (11748164_a_at) / RFU JSRP1 (11732532_at) / Fold change /veh JSRP1 (11732532_at) / RFU KRTAP10-11 (11738290_x_at) / Fold change /veh KRTAP10-11 (11738290_x_at) / RFU MYO3A (11730013_a_at) / Fold change /veh MYO3A (11730013_a_at) / RFU EBF3 (11725865_a_at) / Fold change /veh EBF3 (11725865_a_at) / RFU CAMK2N1 (11719241_x_at) / Fold change /veh CAMK2N1 (11719241_x_at) / RFU C5orf56 (11738088_a_at) / Fold change /veh C5orf56 (11738088_a_at) / RFU OLFML3 (11715873_a_at) / Fold change /veh OLFML3 (11715873_a_at) / RFU LOC100653217 /// NTM (11731650_a_at) / Fold change /veh LOC100653217 /// NTM (11731650_a_at) / RFU MAPK11 (11762145_a_at) / Fold change /veh MAPK11 (11762145_a_at) / RFU FIZ1 (11724087_x_at) / Fold change /veh FIZ1 (11724087_x_at) / RFU OASL (11726364_x_at) / Fold change /veh OASL (11726364_x_at) / RFU SOX15 (11748057_x_at) / Fold change /veh SOX15 (11748057_x_at) / RFU CD79A (11719716_a_at) / Fold change /veh CD79A (11719716_a_at) / RFU HIST1H1D (11736915_at) / Fold change /veh HIST1H1D (11736915_at) / RFU CASKIN2 (11723855_a_at) / Fold change /veh CASKIN2 (11723855_a_at) / RFU LOC730098 (11760151_x_at) / Fold change /veh LOC730098 (11760151_x_at) / RFU OR4N2 (11742367_at) / Fold change /veh OR4N2 (11742367_at) / RFU PRRT2 (11749266_a_at) / Fold change /veh PRRT2 (11749266_a_at) / RFU SNX32 (11753110_a_at) / Fold change /veh SNX32 (11753110_a_at) / RFU CDHR5 (11726645_a_at) / Fold change /veh CDHR5 (11726645_a_at) / RFU RCAN1 (11760418_a_at) / Fold change /veh RCAN1 (11760418_a_at) / RFU FAM167A (11723789_a_at) / Fold change /veh FAM167A (11723789_a_at) / RFU FAM26E (11764081_at) / Fold change /veh FAM26E (11764081_at) / RFU ISYNA1 (11749810_s_at) / Fold change /veh ISYNA1 (11749810_s_at) / RFU ACY1 (11761880_at) / Fold change /veh ACY1 (11761880_at) / RFU 11764098_at / Fold change /veh 11764098_at / RFU SAMD14 (11745864_x_at) / Fold change /veh SAMD14 (11745864_x_at) / RFU NPB (11741838_a_at) / Fold change /veh NPB (11741838_a_at) / RFU TMPRSS6 (11731388_a_at) / Fold change /veh TMPRSS6 (11731388_a_at) / RFU KRTAP10-2 (11738614_at) / Fold change /veh KRTAP10-2 (11738614_at) / RFU ARHGAP8 /// PRR5-ARHGAP8 (11727945_x_at) / Fold change /veh ARHGAP8 /// PRR5-ARHGAP8 (11727945_x_at) / RFU KRTAP5-7 /// NADSYN1 (11734609_at) / Fold change /veh KRTAP5-7 /// NADSYN1 (11734609_at) / RFU RASL12 (11751679_a_at) / Fold change /veh RASL12 (11751679_a_at) / RFU CDKN2B (11736163_a_at) / Fold change /veh CDKN2B (11736163_a_at) / RFU PRF1 (11729649_at) / Fold change /veh PRF1 (11729649_at) / RFU, ZNF638 /// ZNF638-IT1 / Fold change vs veh, ZNF638 /// ZNF638-IT1 / RFU, PANK3 / Fold change vs veh, PANK3 / RFU, SH3YL1 / Fold change vs veh, SH3YL1 / RFU, ZEB2 / Fold change vs veh, ZEB2 / RFU, NRIP1 / Fold change vs veh, NRIP1 / RFU, PTTG1IP / Fold change vs veh, PTTG1IP / RFU, CAPN2 / Fold change vs veh, CAPN2 / RFU, MED14 / Fold change vs veh, MED14 / RFU, SNORA58 / Fold change vs veh, SNORA58 / RFU, C1orf63 / Fold change vs veh, C1orf63 / RFU, LRRFIP1 / Fold change vs veh, LRRFIP1 / RFU, NDUFAF7 / Fold change vs veh, NDUFAF7 / RFU, SLC12A2 / Fold change vs veh, SLC12A2 / RFU, IBTK / Fold change vs veh, IBTK / RFU, ESF1 / Fold change vs veh, ESF1 / Fold change vs veh, TMEM50B / RFU, TAOK1 / Fold change vs veh, TAOK1 / RFU, ACBD3 / Fold change vs veh, ACBD3 / RFU, TMA16 / Fold change vs veh, TMA16 / RFU, RWDD3 / Fold change vs veh, RWDD3 / RFU, BCAT1 / Fold change vs veh, BCAT1 / RFU, EDEM3 / Fold change vs veh, EDEM3 / RFU, TMEM33 / Fold change vs veh, TMEM33 / RFU, WDR75 / Fold change vs veh, WDR75 / RFU, AHCTF1 / Fold change vs veh, AHCTF1 / RFU, TFRC / Fold change vs veh, TFRC / RFU, ZDHHC17 / Fold change vs veh, ZDHHC17 / RFU, NOM1 / Fold change vs veh, NOM1 / RFU, ARL8B / Fold change vs veh, ARL8B / RFU, ZBTB11 / Fold change vs veh, ZBTB11 / RFU, TAMM41 / Fold change vs veh, TAMM41 / RFU, KIAA1704 /// LOC100996395 / Fold change vs veh, KIAA1704 /// LOC100996395 / RFU, ING1 / Fold change vs veh, ING1 / RFU, TRMT61B / Fold change vs veh, TRMT61B / RFU, FUBP3 / Fold change vs veh, FUBP3 / RFU, TP53 / Fold change vs veh, TP53 / RFU, TNKS2 / Fold change vs veh, TNKS2 / RFU, ZFP14 / Fold change vs veh, ZFP14 / RFU, ACTR2 / Fold change vs veh, ACTR2 / RFU, PPP3R1 / Fold change vs veh, PPP3R1 / RFU, PIK3R1 / Fold change vs veh, PIK3R1 / RFU, HNRNPA1 / Fold change vs veh, HNRNPA1 / RFU, RNF170 / Fold change vs veh, RNF170 / RFU, ZNF28 / Fold change vs veh, ZNF28 / RFU, RNGTT / Fold change vs veh, RNGTT / RFU, OGT / Fold change vs veh, OGT / RFU, BRD1 / Fold change vs veh, BRD1 / RFU, MARS / Fold change vs veh, MARS / RFU, ZNF655 / Fold change vs veh, ZNF655 / RFU, FAHD1 / Fold change vs veh, FAHD1 / RFU, BDP1 / Fold change vs veh, BDP1 / RFU, LRRCC1 / Fold change vs veh, LRRCC1 / RFU, ARID1A / Fold change vs veh, ARID1A / RFU, ZNF146 / Fold change vs veh, ZNF146 / RFU, ZNF330 / Fold change vs veh, ZNF330 / RFU, GPN3 / Fold change vs veh, GPN3 / RFU, C9orf123 / Fold change vs veh, C9orf123 / RFU, N4BP2L2 / Fold change vs veh, N4BP2L2 / RFU, ARFIP1 / Fold change vs veh, ARFIP1 / RFU, FAM179B / Fold change vs veh, FAM179B / RFU, BCL10 / Fold change vs veh, BCL10 / RFU, UHRF1BP1L / Fold change vs veh, UHRF1BP1L / RFU, BET1 / Fold change vs veh, BET1 / RFU, CNOT2 / Fold change vs veh, CNOT2 / RFU, ZNF268 / Fold change vs veh, ZNF268 / Fold change vs veh, ZNF507 / RFU, DGCR2 / Fold change vs veh, DGCR2 / RFU, WDSUB1 / Fold change vs veh, WDSUB1 / Fold change vs veh, HSP90B1 /// MIR3652 / RFU, ADSS / Fold change vs veh, ADSS / RFU, GK / Fold change vs veh, GK / RFU, ZNF148 / Fold change vs veh, ZNF148 / RFU, TAF9 / Fold change vs veh, TAF9 / RFU, SLC1A5 / Fold change vs veh, SLC1A5 / RFU, SLMO2 / Fold change vs veh, SLMO2 / RFU, ABCC4 / Fold change vs veh, ABCC4 / RFU, LOC101060439 /// RAP1B / Fold change vs veh, LOC101060439 /// RAP1B / RFU, RFX7 / Fold change vs veh, RFX7 / RFU, GTPBP10 / Fold change vs veh, GTPBP10 / RFU, CNEP1R1 / Fold change vs veh, CNEP1R1 / RFU, BIVM-ERCC5 /// ERCC5 / Fold change vs veh, BIVM-ERCC5 /// ERCC5 / RFU, ILF3 / Fold change vs veh, ILF3 / RFU 11762660_at / Fold change /veh 11762660_at / RFU VCAN (11757783_s_at) / Fold change /veh VCAN (11757783_s_at) / RFU DDX43 (11728927_at) / Fold change /veh DDX43 (11728927_at) / RFU KRT8 (11758188_x_at) / Fold change /veh KRT8 (11758188_x_at) / RFU NKD1 (11759106_at) / Fold change /veh NKD1 (11759106_at) / RFU SRD5A1 (11742802_a_at) / Fold change /veh SRD5A1 (11742802_a_at) / RFU TPSAB1 /// TPSB2 (11721975_s_at) / Fold change /veh TPSAB1 /// TPSB2 (11721975_s_at) / RFU GSTM3 (11746129_a_at) / Fold change /veh GSTM3 (11746129_a_at) / RFU IL23R (11737362_x_at) / Fold change /veh IL23R (11737362_x_at) / RFU TMEM51 (11727254_a_at) / Fold change /veh TMEM51 (11727254_a_at) / RFU PIWIL2 (11732686_x_at) / Fold change /veh PIWIL2 (11732686_x_at) / RFU ORM1 (11744905_x_at) / Fold change /veh ORM1 (11744905_x_at) / RFU CCDC152 (11743942_at) / Fold change /veh CCDC152 (11743942_at) / RFU ECM1 (11717891_a_at) / Fold change /veh ECM1 (11717891_a_at) / RFU IL23R (11748794_a_at) / Fold change /veh IL23R (11748794_a_at) / RFU TNFAIP8L3 (11732012_x_at) / Fold change /veh TNFAIP8L3 (11732012_x_at) / RFU MBOAT4 (11741988_at) / Fold change /veh MBOAT4 (11741988_at) / RFU 11764193_at / Fold change /veh 11764193_at / RFU TMEM53 (11763286_at) / Fold change /veh TMEM53 (11763286_at) / RFU MAGEB2 (11727129_at) / Fold change /veh MAGEB2 (11727129_at) / RFU TMEM200A (11744735_a_at) / Fold change /veh TMEM200A (11744735_a_at) / RFU CCDC152 (11751479_a_at) / Fold change /veh CCDC152 (11751479_a_at) / RFU FAM211A (11726209_a_at) / Fold change /veh FAM211A (11726209_a_at) / RFU RGS16 (11746705_a_at) / Fold change /veh RGS16 (11746705_a_at) / RFU VCAN (11755009_s_at) / Fold change /veh VCAN (11755009_s_at) / RFU RHOB (11743442_s_at) / Fold change /veh RHOB (11743442_s_at) / RFU RGS16 (11720943_a_at) / Fold change /veh RGS16 (11720943_a_at) / RFU RGS16 (11720944_at) / Fold change /veh RGS16 (11720944_at) / RFU, VPS4B / Fold change vs veh, VPS4B / RFU, CREB1 / Fold change vs veh, CREB1 / RFU, DNAJC13 / Fold change vs veh, DNAJC13 / RFU, GNAQ / Fold change vs veh, GNAQ / RFU, CDK5R1 / Fold change vs veh, CDK5R1 / RFU, ZRANB3 / Fold change vs veh, ZRANB3 / RFU, CUL4A / Fold change vs veh, CUL4A / RFU, CCNY / Fold change vs veh, CCNY / RFU, UFL1 / Fold change vs veh, UFL1 / RFU, COG3 / Fold change vs veh, COG3 / RFU, DIAPH2 / Fold change vs veh, DIAPH2 / RFU, SKA2 / Fold change vs veh, SKA2 / RFU, AFF3 / Fold change vs veh, AFF3 / RFU, LMF1 / Fold change vs veh, LMF1 / RFU, IPO11 / Fold change vs veh, IPO11 / RFU, DFFB / Fold change vs veh, DFFB / RFU, FOXP1 / Fold change vs veh, FOXP1 / RFU, CARD8 / Fold change vs veh, CARD8 / RFU, STRN3 / Fold change vs veh, STRN3 / RFU, ADK / Fold change vs veh, ADK / RFU, RASSF2 / Fold change vs veh, RASSF2 / RFU, WIPF1 / Fold change vs veh, WIPF1 / RFU, LARP1B / Fold change vs veh, LARP1B / RFU, RASA1 / Fold change vs veh, RASA1 / RFU, RB1 / Fold change vs veh, RB1 / RFU, PPFIA1 / Fold change vs veh, PPFIA1 / RFU, MAT2A / Fold change vs veh, MAT2A / RFU, CCT5 / Fold change vs veh, CCT5 / RFU, WDR92 / Fold change vs veh, WDR92 / RFU, CUX1 / Fold change vs veh, CUX1 / RFU, TTC7A / Fold change vs veh, TTC7A / RFU, TMEM135 / Fold change vs veh, TMEM135 / RFU, DEPTOR / Fold change vs veh, DEPTOR / RFU, CPM / Fold change vs veh, CPM / RFU, DNAJB6 / Fold change vs veh, DNAJB6 / RFU, CACNA2D3 / Fold change vs veh, CACNA2D3 / RFU, DTX4 / Fold change vs veh, DTX4 / RFU, TFCP2 / Fold change vs veh, TFCP2 / RFU, GMCL1 /// GMCL1P1 / Fold change vs veh, GMCL1 /// GMCL1P1 / RFU, AEBP2 / Fold change vs veh, AEBP2 / RFU, SNHG1 /// SNORD22 /// SNORD25 /// SNORD26 /// SNORD27 /// SNORD28 /// SNORD29 /// SNORD31 / Fold change vs veh, SNHG1 /// SNORD22 /// SNORD25 /// SNORD26 /// SNORD27 /// SNORD28 /// SNORD29 /// SNORD31 / Fold change (Aza/veh), C12orf56 (ProbeSet 11735607_a_at) / Fold change (ACY-1035/veh), C12orf56 (ProbeSet 11735607_a_at) / Fold change (Aza/veh), FGFR1OP (ProbeSet 11751329_s_at) / Fold change (ACY-1035/veh), FGFR1OP (ProbeSet 11751329_s_at) / Fold change (Aza/veh), VPS36 (ProbeSet 11739960_a_at) / Fold change (ACY-1035/veh), VPS36 (ProbeSet 11739960_a_at) / RFU SYPL1 (11715823_x_at) / Fold change /veh SYPL1 (11715823_x_at) / RFU IGFBP7 (11715501_s_at) / Fold change /veh IGFBP7 (11715501_s_at) / RFU REEP3 (11722064_at) / Fold change /veh REEP3 (11722064_at) / RFU IGLL1 (11728026_x_at) / Fold change /veh IGLL1 (11728026_x_at): dose or concentration left out as unconfirmed
# Details: MV-4-11 cells, 48 hours
structure (smiles),measurement,value
Nc1ncn([C@@H]2O[C@H](CO)[C@@H](O)[C@H]2O)c(=O)n1 [azacitidine],Fold change /veh ID3 (11757404_x_at),1.09
